This passage reports inhibition and EC50 results from ChEMBL document CHEMBL1914363, “Identification of a naturally occurring quinazolin-4(3H)-one firefly luciferase inhibitor” (J Nat Prod, 2011).

As usually defined, the EC50 is the concentration at which the effect is half-maximal. Read a low EC50 as a more potent agent.

Molecules are shown by their SMILES. Calls of active or inactive are those of the source. No cut-off for these calls is given here.

The target of test [1] is T1, Luciferin 4-monooxygenase (Luciola lateralis) (UniProt Q01158).
T1 sequence (whole entry): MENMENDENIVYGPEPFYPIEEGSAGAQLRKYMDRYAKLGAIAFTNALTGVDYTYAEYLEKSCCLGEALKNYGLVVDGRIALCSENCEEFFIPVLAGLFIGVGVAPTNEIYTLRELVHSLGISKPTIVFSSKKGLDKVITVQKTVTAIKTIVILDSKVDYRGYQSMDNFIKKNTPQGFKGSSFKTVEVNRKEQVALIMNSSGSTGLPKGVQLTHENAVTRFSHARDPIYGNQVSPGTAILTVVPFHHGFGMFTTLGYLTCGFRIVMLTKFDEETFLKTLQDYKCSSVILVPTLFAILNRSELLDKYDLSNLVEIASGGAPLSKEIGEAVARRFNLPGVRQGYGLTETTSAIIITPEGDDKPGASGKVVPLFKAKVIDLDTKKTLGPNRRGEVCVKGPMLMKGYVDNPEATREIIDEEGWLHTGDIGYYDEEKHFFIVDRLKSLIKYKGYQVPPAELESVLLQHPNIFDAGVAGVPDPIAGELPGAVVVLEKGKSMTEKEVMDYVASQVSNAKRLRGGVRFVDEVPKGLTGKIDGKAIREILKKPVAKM
The experiment in a line: Inhibition of firefly luciferase by ATPlite assay in presence of AMPK. To be noted: Aquatica lateralis. (ATP-based viability assays read luminescence as a measure of living cells.)

For test [2], the target named is T2, Luciferin 4-monooxygenase (Luciola lateralis, UniProt Q01158).
T2 sequence (Q01158 whole entry): T1 sequence (whole entry)
The experiment in a line: Inhibition of firefly luciferase by ATPlite assay in absence of AMPK. More on the design: species or system Aquatica lateralis.

On to `CNc1ccc(-c2nc3ccccc3c(=O)[nH]2)cc1`, for which the inhibition entry in test [1] is “Active”. In test [2], this compound showed an EC50 of 730 nM.
